What was measured:
[1] = Hydrophilicity of SCL by dynamic contact angle measurement (senofilcon A); assay type: physicochemical; settings: FIG. 9
Protocol: (§1) SCL having etafilcon A, senofilcon A or balafilcon A as a material was taken out from a blister pack. Moisture on SCL to be measured was wiped off twice with a paper waste cloth, and dien the contact angle was measured using a dynamic contact angle measuring apparatus (automatic contact angle meter DSA100 S manufactured by Krass Company). SCL was set on a sample stage of the dynamic contact angle measuring apparatus in such a manner that die concave surface of the SCL faced upward, and 2 μL of PBS was dropped After dropping, droplets were photographed with a camera after about 10 seconds, and the contact angle between the SCL surface and the droplet was calculated by analysis software.
(§2) Next, each SCL was immersed in a PBS solution containing 50 ppm of the hydrolyzed hyaluronic acid derivative. As a control test, each SCL was immersed in PBS. […] The cycle treatment was repeated, and fir SCL 1 day after immersion and 13 days after immersion, the contact angle was calculated in die same manner as described above.
(§3) Further, each SCL was immersed in a PBS solution containing 50 ppm of Na hyaluronate instead of die hydrolyzed hyaluronic add derivative, and die contact angle was calculated in die same manner as in the case of the hydrolyzed hyaluronic acid derivative.

[2] = tested on: both eyes of 15 subjects; assay: Suppression of corneal staining: SPK (superficial punctate keratitis) score in subjects; assay type: in vivo; settings: 50 ppm in solution A; 15 subjects (30 eyes); conclusion from the SPK score
[3] = Hydrophilicity of SCL by dynamic contact angle measurement (etafilcon A); assay type: physicochemical
Protocol: as §1
Next, each SCL was immersed in a PBS solution containing 50 ppm of the hydrolyzed hyaluronic acid derivative. As a control test, each SCL was immersed in PBS. The SCLs were immersed in the respective solutions overnight, and then subjected to cycle treatment under the condition of immersion of the SCL in PBS for 8 hours in conformity to actual wear. The cycle treatment was repeated, and fir SCL 1 day after immersion and 13 days after immersion, the contact angle was calculated in die same manner as described above.
as §3

[4] = Hydrophilicity of SCL by dynamic contact angle measurement (balafilcon A); assay type: physicochemical; settings: FIG. 7
Protocol: as §1, §2, §3

[5] = PBS containing 50 ppm, risk ratio of less than 5%

With “hydrolyzed alkyl (C12-13) glyceryl hyaluronate [hydrolyzed hyaluronic acid derivative]” the “contact angle as compared to SCL immersed in PBS, or PBS containing 50 ppm of Na hyaluronate” value ([1]; Mann-Whitney U test) was “significantly smaller”, the “contact angle of SCL immersed for 13 days compared with 1 day” value (“contact angle … compared with 1 day” for short) [1, 5] was “significantly smaller” and the “effect on occurrence of corneal staining” value [2] was “effect of suppressing occurrence of corneal staining”. The “contact angle as compared to SCL immersed in PBS, or PBS containing 50 ppm of Na hyaluronate” value ([3]; etafilcon A SCL, PBS containing 50 ppm, Mann-Whitney U test, FIG. 5) was “significantly smaller”, the “contact angle … compared with 1 day” value ([3]; etafilcon A SCL, PBS containing 50 ppm, risk ratio of less than 5%, FIG. 5) was “significantly smaller” and the “contact angle as compared to Na hyaluronate” value ([3]; summary for all of the three kinds of SCL (etafilcon A, balafilcon A, senofilcon A)) was “smaller contact angle”. The “contact angle as compared to SCL immersed in PBS, or PBS containing 50 ppm of Na hyaluronate” value ([4]; Mann-Whitney U test) was “significantly smaller” and the “contact angle … compared with 1 day” value [4, 5] was “significantly smaller”.
